Experimental data reported in US20110207627A1, “EX VIVO THERAPEUTICS SCREENING OF LIVING BONE MARROW CELLS FOR MULTIPLE MYELOMA” (GEORGE MASON UNIVERSITY, priority 2008, published 2011).

Test system: CD138+ cells and bone marrow cells (BMC)
Test: Ex vivo treatment of multiple myeloma bone marrow aspirates, reverse phase protein microarray, CD138+ cells compared with bone marrow cells
Format: cell-based, human
Conditions: female, treatment naive multiple myeloma patient; 4 hours ex vivo; IL-6 stimulated cells compared to IGF1R & Rapamycin combination (FIG. 3)
Source text: A workflow using protein kinase signal pathway mapping technology was developed for the ex vivo, short-term drug treatment of fresh, living human multiple myeloma (MM) bone marrow aspirate tumor cells, compared to non MM bone marrow cells for the same patient. The study sought a) to measure the signal pathway perturbations caused by the inhibitor/ligand treatment in individual baseline bone marrow aspirate samples, b) to correlate this with the susceptibility of the ex vivo living sample to apoptosis induction, within 4 hours, by a molecular targeted inhibitor which blocks this pathway, and c) to compare the relative sensitivity of tumor and non tumor bone marrow cells treated in admixture under identical conditions to identify predictive/prognostic protein-based biomarkers.
Human bone marrow aspirates (n=20) and clinical information were collected following an IRB approved protocol from patients providing informed consent. A portion of the aspirate that was not needed for pathological diagnosis was immediately fixed for baseline analysis and the remaining sample was separated into multiple aliquots for ex vivo treatment. […]
Reverse phase protein arrays were used to quantitatively map 60 to 75 signal pathway endpoints. The impact of each treatment was measured on the selected endpoint compared to the vehicle control. […]

In the case of “IL-6: cytokine used as exogenous ligand to stimulate cells”, the pro survival signaling is reported as “Differential pro survival signaling”.
